Measured values from the supplement of paper PMC11208160.

assay: recombinant UMI read abundance after kanamycin selection (control-corrected) (log10(CPM+1)); higher = more efficient recombination; extreme values may be limits of the assay; sequences stand for … in AGTGCAGAGAAAATCGGCCAGTTTTCTCTGCCTGCAGTCCGCATGCCGTGGGACCCCTTGGGTTCTAACCTGTTGCCTAGATTTATGCAGCGGACTGCCTTTCTCCCAAAGTGATAAACCGG…AGGTTGGTTTCACT; site = the 11-nt donor
In short: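 Reported values are log10(CPM+1) from a pooled Escherichia coli screen of donor and donor-binding-loop pairs for the IS621 bridge recombinase. Selection used IPTG (0.07 mM) plus kanamycin, against unselected plating, each in two replicates. Recombinant UMIs were amplified across the donor–target junction, sequenced, converted to CPM, averaged over replicates and scaled by control-derived factors.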
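Note: IS621 bridge recombinase in Escherichia coli cells against a fixed T5 target plasmid.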

First: ATCGACTCATGGACCGGTTTTCCCGGTAATCCGTATTTGAG (site ATCGACTCTCT)
Second: ATCGAGTCATGGACCGGTTTTCCCGGTAATCCGTATTTGTA (site ATCGAGTCTTA)
The “recombinant UMI read abundance (log10)” value of the first is lower: 1.67 for the first, 3.05 for the second.

Compared with “ATCGATTCATGGACCGGTTTTCCCGGTAATCCGTATTTGAG (site ATCGATTCTCT)”, “ATCGGGACATGGACCGGTTTTCCCGGTAATCCGTATTTGTG (site ATCGGGACTCA)” is lower in “recombinant UMI read abundance (log10)” value: 2.41 for the first, 0.972 for the second.

First: ATCTAAGCATGGACCGGTTTTCCCGGTAATCCGTATTTGAG (site ATCAAAGCTCT)
Second: ATCTAAGCATGGACCGGTTTTCCCGGTAATCCGTATTTGAG (site ATCCAAGCTCT)
The “recombinant UMI read abundance (log10)” value of the first is lower: 0.792 for the first, 1.93 for the second.

Going from “ATCTAAGCATGGACCGGTTTTCCCGGTAATCCGTATTTGAG (site ATCGAAGCTCT)” to “ATCTAAGCATGGACCGGTTTTCCCGGTAATCCGTATTTGAG (site ATCTAAGCTCT)”, the “recombinant UMI read abundance (log10)” value rises from 0.367 to 2.16.

Going from “ATCTATACATGGACCGGTTTTCCCGGTAATCCGTATTTGCC (site ATCTATACTGA)” to “ATCTATACATGGACCGGTTTTCCCGGTAATCCGTATTTGCC (site ATCTATACTGC)”, the “recombinant UMI read abundance (log10)” value falls from 1.23 to 0.

First: ATCTATACATGGACCGGTTTTCCCGGTAATCCGTATTTGCC (site ATCTATACTGG)
Second: ATCTATACATGGACCGGTTTTCCCGGTAATCCGTATTTGCC (site ATCTATACTGT)
The “recombinant UMI read abundance (log10)” value of the first is higher: 2.12 for the first, 0.46 for the second.

Going from “ATCTATACATGGACCGGTTTTCCCGGTAATCCGTATTTGTC (site ATCTATACTGA)” to “ATCTATACATGGACCGGTTTTCCCGGTAATCCGTATTTGTC (site ATCTATACTGC)”, the “recombinant UMI read abundance (log10)” value falls from 2.8 to 0.

“ATCTATACATGGACCGGTTTTCCCGGTAATCCGTATTTGTC (site ATCTATACTGG)” and “ATCTATACATGGACCGGTTTTCCCGGTAATCCGTATTTGTC (site ATCTATACTGT)” are the same in “recombinant UMI read abundance (log10)” value: 0 for the first, 0 for the second.

Going from “ATCTGATCATGGACCGGTTTTCCCGGTAATCCGTATTTGCT (site ATCTGATCTAG)” to “ATCTTGGCATGGACCGGTTTTCCCGGTAATCCGTATTTGCT (site ATCTTGGCTAG)”, the “recombinant UMI read abundance (log10)” value falls from 2.71 to 0.

Compared with “ATGAACTCATGGACCGGTTTTCCCGGTAATCCGTATTTGGG (site ATGAACTCTCC)”, “ATGAAGACATGGACCGGTTTTCCCGGTAATCCGTATTTGCT (site AGGAAGACTTG)” is lower in “recombinant UMI read abundance (log10)” value: 1.08 for the first, 0 for the second.

Going from “ATGAAGACATGGACCGGTTTTCCCGGTAATCCGTATTTGCT (site ATGAAGACTAG)” to “ATGAATACATGGACCGGTTTTCCCGGTAATCCGTATTTGCA (site AGGAAGACTTG)”, the “recombinant UMI read abundance (log10)” value falls from 2.82 to 0.

First: ATGAATACATGGACCGGTTTTCCCGGTAATCCGTATTTGCA (site ATGAATACTTG)
Second: ATGAATACATGGACCGGTTTTCCCGGTAATCCGTATTTGGC (site ATGAATACTGC)
The “recombinant UMI read abundance (log10)” value of the first is higher: 2.21 for the first, 1.69 for the second.

Going from “ATGAATTCATGGACCGGTTTTCCCGGTAATCCGTATTTGGT (site ATGAATTCTAC)” to “ATGAGGACATGGACCGGTTTTCCCGGTAATCCGTATTTGGG (site ATGAGGACTCC)”, the “recombinant UMI read abundance (log10)” value falls from 2.57 to 0.399.

“ATGATAACATGGACCGGTTTTCCCGGTAATCCGTATTTGCA (site ATGATAACTTG)” and “ATGCAAGCATGGACCGGTTTTCCCGGTAATCCGTATTTGAG (site ATACAAGCTCT)” are within 0.2 log units of each other in “recombinant UMI read abundance (log10)” value: 2.08 for the first, 2.24 for the second.

Compared with “ATGCAAGCATGGACCGGTTTTCCCGGTAATCCGTATTTGAG (site ATCCAAGCTCT)”, “ATGCAAGCATGGACCGGTTTTCCCGGTAATCCGTATTTGAG (site ATGCAAGCTCT)” is higher in “recombinant UMI read abundance (log10)” value: 0.701 for the first, 2.26 for the second.

Going from “ATGCAAGCATGGACCGGTTTTCCCGGTAATCCGTATTTGAG (site ATTCAAGCTCT)” to “ATGCAAGCATGGACCGGTTTTCCCGGTAATCCGTATTTGGA (site ATGCAAGCTTC)”, the “recombinant UMI read abundance (log10)” value rises from 0.614 to 1.86.

Going from “ATGCAGACATGGACCGGTTTTCCCGGTAATCCGTATTTGCA (site AGGAAGACTTG)” to “ATGCAGACATGGACCGGTTTTCCCGGTAATCCGTATTTGCA (site ATGCAGACTTG)”, the “recombinant UMI read abundance (log10)” value rises from 0 to 2.15.

First: ATGCATGCATGGACCGGTTTTCCCGGTAATCCGTATTTGGT (site ATGCATGCTAC)
Second: ATGCATGCATGGACCGGTTTTCCCGGTAATCCGTATTTGGT (site CTGCATGCTAC)
The “recombinant UMI read abundance (log10)” value of the first is higher: 1.67 for the first, 0.628 for the second.

Compared with “ATGCATGCATGGACCGGTTTTCCCGGTAATCCGTATTTGGT (site GTGCATGCTAC)”, “ATGCATGCATGGACCGGTTTTCCCGGTAATCCGTATTTGGT (site TTGCATGCTAC)” is higher in “recombinant UMI read abundance (log10)” value: 0.323 for the first, 0.601 for the second.

Compared with “ATGCTCGCATGGACCGGTTTTCCCGGTAATCCGTATTTGAA (site ATGCTCGCTTT)”, “ATGGCACCATGGACCGGTTTTCCCGGTAATCCGTATTTGGG (site ATGGCACCTCC)” is lower in “recombinant UMI read abundance (log10)” value: 1.82 for the first, 0.00577 for the second.

First: ATGGGAGCATGGACCGGTTTTCCCGGTAATCCGTATTTGTA (site ATGGGAGCTTA)
Second: ATGGGCCCATGGACCGGTTTTCCCGGTAATCCGTATTTGAC (site ATGGGCCCTGT)
The “recombinant UMI read abundance (log10)” value of the first is higher: 2.2 for the first, 0.523 for the second.

First: ATGGGTACATGGACCGGTTTTCCCGGTAATCCGTATTTGGC (site ATGGGTACTGC)
Second: ATGGTAGCATGGACCGGTTTTCCCGGTAATCCGTATTTGGA (site ATGGTAGCTTC)
The “recombinant UMI read abundance (log10)” value of the first is higher: 2.89 for the first, 1.72 for the second.

Compared with “ATGGTATCATGGACCGGTTTTCCCGGTAATCCGTATTTGAC (site ATGGTATCTGT)”, “ATGGTATCATGGACCGGTTTTCCCGGTAATCCGTATTTGAC (site CTAGTATCTGT)” is lower in “recombinant UMI read abundance (log10)” value: 3.67 for the first, 2.1 for the second.

First: ATGGTATCATGGACCGGTTTTCCCGGTAATCCGTATTTGCA (site ACAGTATCTTG)
Second: ATGGTATCATGGACCGGTTTTCCCGGTAATCCGTATTTGCA (site ATGGTATCTTG)
The “recombinant UMI read abundance (log10)” value of the first is lower: 1.69 for the first, 3.07 for the second.

Compared with “ATGGTTTCATGGACCGGTTTTCCCGGTAATCCGTATTTGTA (site ATGGTTTCTTA)”, “ATGTACGCATGGACCGGTTTTCCCGGTAATCCGTATTTGGC (site ATGTAAGCTGC)” is lower in “recombinant UMI read abundance (log10)” value: 2.68 for the first, 1.81 for the second.

First: ATGTACGCATGGACCGGTTTTCCCGGTAATCCGTATTTGGC (site ATGTACGCTGC)
Second: ATGTACGCATGGACCGGTTTTCCCGGTAATCCGTATTTGGC (site ATGTAGGCTGC)
The “recombinant UMI read abundance (log10)” value of the first is higher: 3.06 for the first, 0 for the second.

First: ATGTACGCATGGACCGGTTTTCCCGGTAATCCGTATTTGGC (site ATGTATGCTGC)
Second: ATGTACTCATGGACCGGTTTTCCCGGTAATCCGTATTTGCA (site ATGTACTCTTG)
The “recombinant UMI read abundance (log10)” value of the first is lower: 0 for the first, 2.96 for the second.

Compared with “ATGTAGCCATGGACCGGTTTTCCCGGTAATCCGTATTTGGC (site ATGTAGACTGC)”, “ATGTAGCCATGGACCGGTTTTCCCGGTAATCCGTATTTGGC (site ATGTAGCCTGC)” is higher in “recombinant UMI read abundance (log10)” value: 0 for the first, 0.669 for the second.

Compared with “ATGTAGCCATGGACCGGTTTTCCCGGTAATCCGTATTTGGC (site ATGTAGGCTGC)”, “ATGTAGCCATGGACCGGTTTTCCCGGTAATCCGTATTTGGC (site ATGTAGTCTGC)” is higher in “recombinant UMI read abundance (log10)” value: 0 for the first, 1.33 for the second.

Going from “ATGTAGGCATGGACCGGTTTTCCCGGTAATCCGTATTTGGC (site AAGTAGGCTGC)” to “ATGTAGGCATGGACCGGTTTTCCCGGTAATCCGTATTTGGC (site ACGTAGGCTGC)”, the “recombinant UMI read abundance (log10)” value rises from 1.22 to 1.74.

Compared with “ATGTAGGCATGGACCGGTTTTCCCGGTAATCCGTATTTGGC (site AGGTAGGCTGC)”, “ATGTAGGCATGGACCGGTTTTCCCGGTAATCCGTATTTGGC (site ATATAGGCTGC)” is higher in “recombinant UMI read abundance (log10)” value: 0.332 for the first, 2.8 for the second.

Going from “ATGTAGGCATGGACCGGTTTTCCCGGTAATCCGTATTTGGC (site ATCTAGGCTGC)” to “ATGTAGGCATGGACCGGTTTTCCCGGTAATCCGTATTTGGC (site ATGAAGGCTGC)”, the “recombinant UMI read abundance (log10)” value rises from 0.844 to 2.35.

First: ATGTAGGCATGGACCGGTTTTCCCGGTAATCCGTATTTGGC (site ATGCAGGCTGC)
Second: ATGTAGGCATGGACCGGTTTTCCCGGTAATCCGTATTTGGC (site ATGGAGGCTGC)
The “recombinant UMI read abundance (log10)” value of the first is higher: 2.19 for the first, 0 for the second.

Going from “ATGTAGGCATGGACCGGTTTTCCCGGTAATCCGTATTTGGC (site ATGTAAGCTGC)” to “ATGTAGGCATGGACCGGTTTTCCCGGTAATCCGTATTTGGC (site ATGTACGCTGC)”, the “recombinant UMI read abundance (log10)” value falls from 2.28 to 0.834.

First: ATGTAGGCATGGACCGGTTTTCCCGGTAATCCGTATTTGGC (site ATGTAGACTGC)
Second: ATGTAGGCATGGACCGGTTTTCCCGGTAATCCGTATTTGGC (site ATGTAGCCTGC)
The “recombinant UMI read abundance (log10)” value of the first is higher: 2.34 for the first, 0.604 for the second.

Going from “ATGTAGGCATGGACCGGTTTTCCCGGTAATCCGTATTTGGC (site ATGTAGGCTAC)” to “ATGTAGGCATGGACCGGTTTTCCCGGTAATCCGTATTTGGC (site ATGTAGGCTCC)”, the “recombinant UMI read abundance (log10)” value falls from 1.17 to 0.328.

Going from “ATGTAGGCATGGACCGGTTTTCCCGGTAATCCGTATTTGGC (site ATGTAGGCTGA)” to “ATGTAGGCATGGACCGGTTTTCCCGGTAATCCGTATTTGGC (site ATGTAGGCTGC)”, the “recombinant UMI read abundance (log10)” value rises from 2.15 to 2.4.

For “ATGTAGGCATGGACCGGTTTTCCCGGTAATCCGTATTTGGC (site ATGTAGGCTGG)”, the “recombinant UMI read abundance (log10)” value was 2.41.
